Reference: patent US10280167B2, “Purine derivatives for the treatment of viral infections” (JANSSEN SCIENCES IRELAND UC, priority 2011, dated 2019)

What was measured:
Type in all cases: cell-based
[1] = test system: human TLR7 dIRR2 mutant; assay: Reporter assay for TLR7 activity, HEK293 transfected with mutant TLR7 (dIRR2 deletion) and NFκB-luc; conditions: lowest effective concentration; 24 h transfection
Procedure: (§1) Reporter Assays for Assessment of TLR7 Activity (24 h)
(§2) The ability of compounds to activate human TLR7 was assessed in a cellular reporter assay using HEK293 cells transiently transfected with a TLR7 or TLR8 expression vector and NFκB-luc reporter construct. In one instance the TLR expression construct expresses the respective wild type sequence or a mutant sequence comprising a deletion in the second leucine-rich repeat (dIRR2) of the TLR.
(§3) Briefly, HEK293 cells were grown in culture medium (DMEM supplemented with 10% FCS and 2 mM Glutamine). For transfection of cells in 10 cm dishes, cells were detached with Trypsin-EDTA, transfected with a mix of CMV-TLR7 or TLR8 plasmid (750 ng), NFκB-luc plasmid (375 ng) and a transfection reagent and incubated 24 hours or 48 hours respectively at 37° C. in a humidified 5% CO2 atmosphere. Transfected cells were then detached with Trypsin-EDTA, washed in PBS and resuspended in medium to a density of 1.67×10^5 cells/mL. Thirty microliters of cells were then dispensed into each well in 384-well plates, where 10 μL of compound in 4% DMSO was already present. Following 6 hours incubation at 37° C., 5% CO2, the luciferase activity was determined by adding 15 μl of Steady Lite Plus substrate (Perkin Elmer) to each well and readout performed on a ViewLux ultraHTS microplate imager (Perkin Elmer). Dose response curves were generated from measurements performed in quadruplicates. Lowest effective concentrations (LEC) values, defined as the concentration that induces an effect which is at least two fold above the standard deviation of the assay, were determined for each compound. Compound toxicity was determined in parallel using a similar dilution series of compound with 30 μL per well of cells transfected with the CMV-TLR7 construct alone (1.67×10^5 cells/mL), in 384-well plates. Cell viability was measured after 6 hours incubation at 37° C., 5% CO2 by adding 15 μL of ATP lite (Perkin Elmer) per well and reading on a ViewLux ultraHTS microplate imager (Perkin Elmer). Data was reported as CC50.

[2] = test system: Huh-7 luc/neo HCV replicon cells with conditioned media from PBMC; assay: Interferon production in human PBMC (PBMC-HUH7_EC50), HCV replicon readout with conditioned media; conditions: concentration applied to PBMCs giving 50% reduction of replicon luciferase activity
Procedure: Measurement of Interferon Production in Human PBMC (PBMC-HUH7_EC50)
Activation of human TLR7 results in robust production of interferon by plasmacytoid dendritic cells present in human blood. The potential of compounds to induce interferon was evaluated by looking at the antiviral activity in the HCV replicon system upon incubation with conditioned media from peripheral blood mononuclear cells (PBMC). The HCV replicon assay is based on a bicistronic expression construct, as described by Lohmann et al. (Science (1999) 285: 110-113; Journal of Virology (2003) 77: 3007-15 3019) with modifications described by Krieger et al. (Journal of Virology (2001) 75: 4614-4624). The assay utilized the stably transfected cell line Huh-7 luc/neo harboring an RNA encoding a bicistronic expression construct comprising the wild type NS3-NS5B regions of HCV type 1b translated from an Internal Ribosome Entry Site (IRES) from encephalomyocarditis virus (EMCV), preceded by a reporter gene (Firefly-luciferase) and a selectable marker gene (neoR, neomycine phosphotransferase). The construct is flanked by 5′ and 3′ NTRs (non-translated regions) from HCV type 1b. Continued culture of the replicon cells in the presence of G418 (neoR) is dependent on the replication of the HCV RNA. The stably transfected replicon cells that replicate HCV RNA autonomously and to high levels, encoding inter alia luciferase, were used for profiling of the conditioned cell culture media. Briefly, PBMCs were prepared from buffy coats of at least two donors using a standard Ficoll centrifugation protocol. Isolated PBMCs were resuspended in RPMI medium supplemented with 10% human AB serum and 2×10^5 cells/well were dispensed into 384-well plates containing compounds (70 μL total volume). After overnight incubation, […] was transferred to 384-well plates containing 2.2×10^3 replicon cells/well in 30 μL (plated the day before). Following 24 hours of incubation, replication was measured by assaying luciferase activity using 40 μL/well Steady Lite Plus substrate (Perkin Elmer) and measured with ViewLux ultraHTS microplate imager (Perkin Elmer). The inhibitory activity of each compound on the Huh7-luc/neo cells were reported as EC50 values, defined as the compound concentration applied to the PBMCs resulting in a 50% reduction of luciferase activity which in turn indicates the degree of replication of the replicon RNA on transfer of a defined amount of PBMC culture medium. Recombinant interferon α-2a (Roferon-A) was used as a standard control compound.

[3] = test system: human TLR7 dIRR2 mutant; assay: Reporter assay for TLR7 activity, HEK293 transfected with mutant TLR7 (dIRR2 deletion) and NFκB-luc; conditions: lowest effective concentration; 48 h transfection
[4] = test system: HEK-ISRE-luc cells with conditioned media from PBMC; assay: Interferon production in human PBMC (PBMC HEK-ISRE-luc LEC); conditions: lowest effective concentration; for minimal effective concentration: Homo sapiens, PBMC, read-out: PBMC HEK-ISRE-luc (LEC)
Procedure: Measurement of Interferon Production in Human PBMC (PBMC HEK-ISRE-Luc LEC)
Activation of human TLR7 results in robust production of interferon by plasmacytoid dendritic cells present in human blood. The potential of compounds to induce interferon was evaluated by determination of interferon in the conditioned media from peripheral blood mononuclear cells (PBMC). The presence of interferon in the samples was determined, using an interferon reporter cell line stably expressing an interferon-stimulated responsive elements (ISRE)-luc reporter construct. The ISRE element with sequence GAAACTGAAACT (SEQ ID NO: 1) is highly responsive to the STAT1-STAT2-IRF9 transcription factor, which becomes activated upon binding of IFN-I to the IFN receptor. Briefly, PBMCs were prepared from buffy coats of at least two donors using a standard Ficoll centrifugation protocol. Isolated PBMCs were resuspended in RPMI medium supplemented with 10% human AB serum and 2×10^5 cells/well were dispensed into 384-well plates containing compounds (70 μL total volume). After overnight incubation of the PBMCs with the compounds, 10 μL of supernatant was transferred to 384-well plates containing 5×10^3 HEK-ISRE-luc cells/well in 30 μL (plated the day before). Following 24 hours of incubation, activation of the ISRE elements was measured by assaying luciferase activity using 40 μL/well Steady Lite Plus substrate (Perkin Elmer) and measured with ViewLux ultraHTS microplate imager (Perkin Elmer). The stimulating activity of each compound on the HEK-ISRE-luc cells was reported as LEC. The LEC in turn indicates the degree of ISRE activation on transfer of a defined amount of PBMC culture medium.
Recombinant interferon alfa-2a (Roferon-A) was used as a standard control compound.

[5] = target: T1, human TLR7 (Homo sapiens (Human), UniProt Q9NYK1); assay: Reporter assay for TLR7 activity, HEK293 transiently transfected with wild type TLR7 and NFκB-luc; conditions: lowest effective concentration; 48 h transfection
[6] = target: T1, human TLR7; assay: as above; conditions: lowest effective concentration; 24 h transfection
Procedure: as §1, §2, §3

[7] = test system: TLR8; assay: Reporter assay HEK293 TLR8-NFκB-luc; conditions: greater than the highest tested concentration
Procedure: as §2
Briefly, HEK293 cells were grown in culture medium (DMEM supplemented with 10% FCS and 2 mM Glutamine). […] Following 6 hours incubation at 37° C., 5% CO2, the luciferase activity was determined by adding 15 μl of Steady Lite Plus substrate (Perkin Elmer) to each well and readout performed on a ViewLux ultraHTS microplate imager (Perkin Elmer). […] Lowest effective concentrations (LEC) values, defined as the concentration that induces an effect which is at least two fold above the standard deviation of the assay, were determined for each compound. Compound toxicity was determined in parallel using a similar dilution series of compound with 30 μL per well of cells transfected with the CMV-TLR7 construct alone (1.67×10^5 cells/mL), in 384-well plates. Cell viability was measured after 6 hours incubation at 37° C., 5% CO2 by adding 15 μL of ATP lite (Perkin Elmer) per well and reading on a ViewLux ultraHTS microplate imager (Perkin Elmer). […]

[8] = test system: HEK293 NFκB-luc; assay: Reporter assay HEK293 NFκB-luc; conditions: greater than the highest tested concentration

T1 sequence (Q9NYK1 27-1049): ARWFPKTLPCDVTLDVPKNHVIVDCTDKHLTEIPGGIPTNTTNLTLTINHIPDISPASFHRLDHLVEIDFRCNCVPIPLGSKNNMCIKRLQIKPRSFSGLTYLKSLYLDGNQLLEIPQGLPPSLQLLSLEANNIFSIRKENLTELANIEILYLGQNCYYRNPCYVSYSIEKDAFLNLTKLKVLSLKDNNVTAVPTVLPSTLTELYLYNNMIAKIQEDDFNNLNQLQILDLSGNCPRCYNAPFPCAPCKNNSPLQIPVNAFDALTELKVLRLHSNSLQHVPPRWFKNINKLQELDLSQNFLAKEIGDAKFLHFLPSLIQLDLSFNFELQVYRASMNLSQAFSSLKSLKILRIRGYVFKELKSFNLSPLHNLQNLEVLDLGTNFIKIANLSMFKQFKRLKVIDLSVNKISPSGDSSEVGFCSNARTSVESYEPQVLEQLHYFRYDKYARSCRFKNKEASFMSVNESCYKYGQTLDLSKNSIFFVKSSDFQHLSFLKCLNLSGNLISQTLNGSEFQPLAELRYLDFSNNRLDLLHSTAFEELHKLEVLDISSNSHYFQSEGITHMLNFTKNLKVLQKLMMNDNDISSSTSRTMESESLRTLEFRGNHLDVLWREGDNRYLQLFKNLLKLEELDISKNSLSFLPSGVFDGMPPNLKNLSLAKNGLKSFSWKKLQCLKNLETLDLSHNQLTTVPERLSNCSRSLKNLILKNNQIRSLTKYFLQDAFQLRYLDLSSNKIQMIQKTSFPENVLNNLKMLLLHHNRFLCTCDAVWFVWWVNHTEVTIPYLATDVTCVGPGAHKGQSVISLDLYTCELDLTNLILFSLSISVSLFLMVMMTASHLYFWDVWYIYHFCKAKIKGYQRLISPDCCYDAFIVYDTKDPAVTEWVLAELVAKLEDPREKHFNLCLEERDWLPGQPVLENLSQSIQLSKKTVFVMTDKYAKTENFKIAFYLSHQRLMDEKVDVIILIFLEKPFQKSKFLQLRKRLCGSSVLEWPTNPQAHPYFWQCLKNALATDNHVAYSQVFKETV

SMILES	TLR7-dIRR2_LEC 24 h [1] [µM]	EC50 ([2]; Homo sapiens, Huh-7) [nM]	TLR7-dIRR2_LEC 48 h [3] [µM]	minimal effective concentration [4] [µM]	TLR7-wt_LEC 48 h [5] [µM]	TLR7-wt_LEC 24 h [6] [µM]	LEC on HEK293 TLR8-NFκB-luc [7] [µM]	LEC on HEK293 NFκB-luc [8] [µM]	EC50 [2] [nM]	PBMC HEK-ISRE-luc (LEC) [4] [µM]
Nc1nc(-c2nc(C3CC3)c[nH]2)nc2c1[nH]c(=O)n2Cc1ccccc1 [Compound 1]	0.33	81	0.18	0.064	8.25	–	–	–	–	–
Nc1nc(-c2nc(-c3ccccc3)c[nH]2)nc2c1[nH]c(=O)n2Cc1ccccc1 [Compound 2]	1.2	531	–	–	–	4.72	–	–	–	–
Nc1nc(-c2nc(C3CCCC3)c[nH]2)nc2c1[nH]c(=O)n2Cc1ccccc1 [Compound 3]	7.67	14000	–	–	–	>24.59	–	–	–	–
Nc1nc(-c2ncc[nH]2)nc2c1[nH]c(=O)n2Cc1ccccc1 [Compound 4]	0.077	160	0.04	0.12	1.23	–	–	–	–	–
Cc1[nH]c(-c2nc(N)c3[nH]c(=O)n(Cc4ccccc4)c3n2)nc1C1CC1 [Compound 5]	2.2	200	1.13	0.13	21.47	–	–	–	–	–
CCc1[nH]c(-c2nc(N)c3[nH]c(=O)n(Cc4ccccc4)c3n2)nc1C1CC1 [Compound 6]	0.66	53	0.34	0.04	6.32	–	> 10	> 10	–	–
Nc1nc(-c2nc(C3CC3)c[nH]2)nc2c1[nH]c(=O)n2CC1CCOCC1 [Compound 10]	18.93	730	10.13	0.44	>25	–	–	–	–	–
Nc1nc(-c2cncnc2)nc2c1[nH]c(=O)n2Cc1ccccc1 [Compound 15]	10.57	16900	9.75	–	>25	>24.59	–	–	–	–
Nc1nc(-c2ccc[nH]2)nc2c1[nH]c(=O)n2Cc1ccccc1 [Compound 18]	3.23	2580	3.81	–	20.31	>24.59	–	–	–	–
Nc1nc(-c2cn[nH]c2)nc2c1[nH]c(=O)n2Cc1ccccc1 [Compound 19]	13.31	12400	16.6	–	>25	>24.59	–	–	–	–
Nc1nc(-c2ccco2)nc2c1[nH]c(=O)n2Cc1ccccc1 [Compound 20]	0.5	680	0.5	–	6.34	–	–	–	–	–
Nc1nc(-n2cccn2)nc2c1[nH]c(=O)n2Cc1ccccc1 [Compound 36]	–	47	0.017	0.033	0.22	–	–	–	–	–
CN(C)CCOc1ccc(Cn2c(=O)[nH]c3c(N)nc(-c4nc(C5CC5)c[nH]4)nc32)cn1 [Compound 54]	–	50	5.65	0.07	16.1	–	–	–	–	–
COC(=O)COc1ccc(Cn2c(=O)[nH]c3c(N)nc(-c4ncc[nH]4)nc32)cn1 [Compound 57]	–	1210	0.06	1.38	0.44	–	–	–	–	–
Nc1nc(-c2ncc[nH]2)nc2c1[nH]c(=O)n2Cc1ccc(OCC(=O)O)nc1 [Compound 58]	–	2750	0.06	2.69	0.99	–	–	–	–	–
Nc1nc(-c2nc(C3CC3)c[nH]2)nc2c1[nH]c(=O)n2Cc1ccc2c(c1)CNCC2 [Compound 60]	–	34	1.25	0.019	>25	–	–	–	–	–
CN1CCN(CCCCCn2c(=O)[nH]c3c(N)nc(-c4ncc[nH]4)nc32)CC1 [Compound 61]	–	–	9.73	–	>25	–	–	–	1340	0.95
Nc1nc(-c2nc(C3CC3)c[nH]2)nc2c1[nH]c(=O)n2CCCCCCN1CCCC1 [Compound 62]	–	700	>25	0.72	21.2	–	–	–	–	–
Nc1nc(-c2ncc[nH]2)nc2c1[nH]c(=O)n2CC1CCOCC1 [Compound 63]	–	6720	2.58	4.39	>25	–	–	–	–	–
